In patent US20120058110A1, “Method for Predicting the Responsiveness to an Anti-TNF Alpha Antibody Treatment” (INSERM (INSTITUT NATIONAL DE LA SANTE ET DE LA RECHERCHE …, priority 2009, published 2012):
Entries after “also recorded” stand apart in the source; their conditions may differ.

What was measured:
[1] = system: human macrophages; test: sIL-15Rα secretion by human macrophages cultured with IFX, etanercept, GM-6001; assay type: cell-based; details: for sIL-15Rα secretion: human macrophages, 8 h; for effect on sIL-15Rα secretion by macrophages: versus macrophages cultured without the agent
Procedure: (§1) The quantification of sIL-15Rα and IL-15 was determined as previously described (Mortier et al. J Immunol 2004; 173:1681-8). Sandwich RIAs were set up in which the goat anti-human IL-15Rα Ab AF247 or the mouse anti-human IL-15 Mab247 (R&D) was used as capture Ab and radio-iodinated anti-human IL-15Rα Ab M161 (GenMab; Copenhagen, Denmark) or radio-iodinated mouse anti human IL-15 BE-29 (Diaclone: Besançon, France) was used as tracer. A purified recombinant sIL-15Rα protein (Bernard et al. J Biol Chem 2004; 279:24313-22) and recombinant IL-15 (Peprotech) were used as standards. Capture Abs were coated (5 μg/mL; 50 μL/well) to high-adsorption Nunc maxisorp plates (Fisher Bioblock Scientific, Illkirch, France). Wells were saturated with PBS-BSA 0.5% for 15 min and samples (50 μL/well) were incubated for 1 h at 4° C. The M161 or BE-29 mAbs were iodinated using the iodogen method and then added (1 nM, 50 μL/well) for 1 h at 4° C. Supernatants of each well were collected and the wells washed twice with PBS. The radioactivity associated to the wells (bound fraction) and contained in the supernatants and washes (unbound fraction) were determined.
Human monocytes were isolated from blood samples of healthy donors. PBMC were collected after Ficoll-Hypaque density centrifugation, resuspended at 7×10^6 cells/mL and allowed to adhere in culture flasks (RPMI 1640 supplemented with L-glutamine, streptomycin, penicillin, 10% FCS) for 1 h 30 at 37° C. Nonadherent cells were removed and adherent cells were washed five times with PBS. Monocytes were further differentiated for 5 days in the same medium supplemented with GM-CSF (100 ng/mL). […] After incubation, supernatants were obtained by centrifugation.

[2] = system: patients with active CD; test: Clinical response and CDAI in active CD patients treated with IFX; assay type: in vivo, human
Procedure: Clinical response for patients treated for perineal disease was assessed by the disappearance of draining fistulas. Blood samples were taken before each infusion and were centrifuged and stored at −80° C. Blood samples were also collected in 37 healthy volunteers. Forty patients with active CD were included in the study (12 males, 28 females, mean age 37.8 years). According to the Montreal classification, the disease was predominantly located into the colon (L2) or the ileocolon (L3) in 62.5 and 32.5% respectively and the disease was mostly non-stricturing and non-penetrating (B1). […] Six patients were treated by a combination of steroids and immunosuppressors, 3 patients received only steroids, 30 only immunosuppressors. Treatments were not modified except steroids which were always stopped between the first and the third infusion. There were no clinical and demographic differences between patients who experienced a response or not to IFX.

[3] = system: TNFα; test: Serum TNFα of CD patients before/after IFX (WEHI 164 XTT bio-assay); assay type: in vivo, human
Procedure: TNFα concentrations were measured in the serum of 43 patients (33 responder patients, 10 non-responders). Quantification TNFα was performed by the XTT method using the murine cell line WEHI 164 (ATCC N^o CRL1751) (Espevik et al. J Immunol Methods 1986; 95:99-105). Cells were seeded in 96-well plates (3×10^4 cells/50 μL/well) and grown at 37° C. in RPMI 1640 supplemented with […] of glutamine, 10% heat-inactivated FCS, LiCl and actinomycin D. Sera from CD patients and healthy volunteers were serially diluted, added to wells and a purified recombinant TNFα (R&D) was used as standard. After 20 h of culture, 50 μL/well of XTT and electron coupling reagent was added and cell survival was determined by measuring the optical density at 450 nm. The sensitivity of the assay was 0.10 pg/mL. The TNFα upper normal limit was calculated by the mean+2 SD of the values obtained in the healthy volunteers.

[4] = system: IL-15; test: Serum IL-15 of CD patients before/after IFX (RIA); assay type: in vivo, human
Procedure: as §1
The upper normal value of IL-15 (6.1 pM) was calculated by the mean+2 SD of the values measured in healthy volunteers.

[5] = system: sIL-15Rα; test: Serum sIL-15Rα of CD patients before/after IFX (RIA); assay type: in vivo, human; details: responder patients
Procedure: as §1

[6] = system: soluble and cell-surface TNFα; details: cited from earlier work
Chain of soluble and cell-surface TNFα (P01375 77-233 limits assumed): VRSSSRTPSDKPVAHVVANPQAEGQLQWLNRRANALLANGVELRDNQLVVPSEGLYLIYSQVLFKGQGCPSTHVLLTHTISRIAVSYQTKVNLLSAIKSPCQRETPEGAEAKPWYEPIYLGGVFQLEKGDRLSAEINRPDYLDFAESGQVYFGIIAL

[7] = system: CD; details: in vivo; cited from earlier work
[8] = experiment with GM-6001 0.2 nM, IFX 0.01 μg/mL, control 1.4±0.9 pM
[9] = 0.01 μg/mL IFX or etanercept, cells without IFX 2.0±0.6 pM
[10] = according to TNF and CRP levels and CDAI, 40 patients, 5 treated twice (45 courses)

| Compound | inducing effect of IFX on sIL-15Rα secretion ([1]; GM-6001 added with IFX) | basal sIL-15Rα secretion ([1]; GM-6001 alone versus control cells) | sIL-15Rα secretion [1, 8] [pM] | sIL-15Rα secretion [1, 9] [pM] | effect on sIL-15Rα secretion by macrophages [1] | patients classified as non-responders to IFX [2, 10] [patients] | patients classified as responders to IFX [2, 10] [patients] | patients with mucosal healing ([2]; three biopsied CD patients, all with clinical responses) | non-responder patients in whom TNF remained above the control value ([3]; week 6, 9/10) [%] | responder patients with individual TNFα values dropping to control ranges ([3]; week 6, 20/33) [%] | responder patients in whom TNFα decreased ([3]; week 6, 31/33) [%] | median IL-15 levels after IFX ([4]; non-responder patients, serum) | patients in whom IL-15 was undetectable after IFX ([4]; responder patients, 15/35, before IFX 26% (9/35)) [%] | patients in whom IL-15 dropped below the control value ([4]; responder patients, 29/35, after IFX) [%] | increase of the proportion of patients with detectable sIL-15Rα after IFX [5] [%] | binding to soluble and cell-surface TNFα [6] | efficacy in CD [7] |
| --- | --- | --- | --- | --- | --- | --- | --- | --- | --- | --- | --- | --- | --- | --- | --- | --- | --- |
| CNC(=O)[C@H](Cc1c[nH]c2ccccc12)NC(=O)[C@@H](CC(=O)NO)CC(C)C [GM-6001] | completely inhibited | not modified; also recorded: did not affect | 4.5 ± 3.0 |  |  |  |  |  |  |  |  |  |  |  |  |  |  |
| IFX: anti-TNFα monoclonal antibody, a mouse-human chimeric whole antibody (Remicade; Centocor) |  |  | 22.4 ± 2.0 | 18.0 ± 1.2 | increased significantly; also recorded: induced; also recorded: markedly increased | 10 | 35 | two | 90 | 61 | 94 | not modified | 43 | 83 | 38 | high affinity and specificity |  |
| etanercept |  |  |  | 6.3 ± 0.9 | did not significantly affect; also recorded: did not induce |  |  |  |  |  |  |  |  |  |  |  | inefficient in CD; also recorded: poor efficacy |
